Test results: patent publication US20100056526A1, “HETEROMONOCYCLIC COMPOUND AND USE THEREOF” (Takeda Pharmaceutical Company Limited, priority 2006, published 2010)

Tests used:
[1] = target: T1, human AT1 receptor (Homo sapiens, UniProt P30556); experiment: Binding assay using human AT1 receptor-expressing CHO-K1 cell membrane fraction ([125I]-angiotensin II); conditions: 22.5 pM [125I]-angiotensin II, 9 μg AT1 membrane, 1 hr room temperature; read-out: AT1 receptor binding inhibitory action (IC50 (nM))
T1 construct: expressed in transfected cells; host or cells: CHO-K1
T1 sequence (P30556 1-359): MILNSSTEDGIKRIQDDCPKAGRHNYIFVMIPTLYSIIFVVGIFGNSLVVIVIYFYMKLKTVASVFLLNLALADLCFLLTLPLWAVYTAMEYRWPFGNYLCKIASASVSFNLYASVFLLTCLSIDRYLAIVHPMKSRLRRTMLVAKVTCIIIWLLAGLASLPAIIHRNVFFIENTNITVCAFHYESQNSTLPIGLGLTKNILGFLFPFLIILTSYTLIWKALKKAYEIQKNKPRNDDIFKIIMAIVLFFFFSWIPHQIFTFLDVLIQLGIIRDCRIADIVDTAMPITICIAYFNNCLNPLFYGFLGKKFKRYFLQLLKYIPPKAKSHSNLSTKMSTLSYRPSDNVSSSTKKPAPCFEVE
Summary of the method: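 Radioligand displacement: test compound competed with [125I]-angiotensin II (22.5 pM) on stable CHO-K1 AT1 membrane fraction, 1 hr, room temperature, Tris pH 7.4/MgCl2 buffer ± 0.3 mg/mL BSA. Filtration then scintillation counting; 1 μM CV-11974 defined nonspecific binding. Values are IC50s.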

[2] = target: T2, PPARγ (Homo sapiens, UniProt P37231); experiment: Evaluation of PPARγ activating action (luciferase reporter in PPARγ:RXRα:4ERPP/CHO-K1 cells); assay type: cell-based; conditions: CHO-K1, 24 h; test compound 10^−6 M; luciferase activity relative to control compound X (1 μM) = 100%, non-administration group = 0%; read-out: PPARγ activating action (activation % (10^−6 M))
T2 construct: expressed in transfected cells; host or cells: CHO-K1
T2 sequence (P37231 1-477 isoform P37231-2): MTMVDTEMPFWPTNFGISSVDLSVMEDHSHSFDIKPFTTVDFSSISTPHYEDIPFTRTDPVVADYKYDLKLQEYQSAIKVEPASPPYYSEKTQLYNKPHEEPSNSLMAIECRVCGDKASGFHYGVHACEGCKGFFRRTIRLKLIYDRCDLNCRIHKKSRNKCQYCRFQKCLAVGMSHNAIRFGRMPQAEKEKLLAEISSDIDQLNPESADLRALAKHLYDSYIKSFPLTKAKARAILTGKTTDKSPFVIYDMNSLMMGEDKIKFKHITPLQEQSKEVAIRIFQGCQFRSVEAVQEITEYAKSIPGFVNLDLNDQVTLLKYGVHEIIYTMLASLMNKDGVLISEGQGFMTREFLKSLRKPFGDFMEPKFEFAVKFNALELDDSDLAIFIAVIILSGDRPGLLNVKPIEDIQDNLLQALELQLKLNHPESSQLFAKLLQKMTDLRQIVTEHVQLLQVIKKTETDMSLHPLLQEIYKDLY
T2 sequence (P19793 1-462 partner): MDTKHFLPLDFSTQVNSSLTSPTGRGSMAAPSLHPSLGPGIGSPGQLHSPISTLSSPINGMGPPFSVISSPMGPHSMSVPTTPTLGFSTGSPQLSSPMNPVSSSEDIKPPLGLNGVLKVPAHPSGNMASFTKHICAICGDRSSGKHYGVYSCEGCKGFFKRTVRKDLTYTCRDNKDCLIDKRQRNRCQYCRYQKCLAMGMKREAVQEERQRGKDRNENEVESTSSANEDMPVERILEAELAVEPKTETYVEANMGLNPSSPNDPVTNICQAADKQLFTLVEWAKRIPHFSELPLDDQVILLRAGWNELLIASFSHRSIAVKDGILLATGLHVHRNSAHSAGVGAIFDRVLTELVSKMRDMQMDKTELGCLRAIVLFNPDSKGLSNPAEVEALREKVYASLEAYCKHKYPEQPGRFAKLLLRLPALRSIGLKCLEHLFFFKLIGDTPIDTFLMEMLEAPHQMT
Summary of the method: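 Activity is expressed as percent, where vehicle gives 0% and 1 μM compound X gives 100%, based on luciferase luminescence. Reporter CHO-K1 cells co-expressing PPARγ:RXRα with a 4ERPP-driven luciferase were incubated with test compound for one day at 37 °C in medium with 0.1% fatty acid-free BSA.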

Row | SMILES | IC50 [1] [nM] | activation at 1 µM [2] [%]
1 | CCCc1nc(C)n(-c2ccc(OC(C)C)cc2)c(=O)c1Cc1ccc(-c2ccccc2-c2noc(=O)[nH]2)c(F)c1 [Example 401, 5-{[2-fluoro-2′-(5-oxo-4,5-dihydro-1,2,4-oxadiazol-3-yl)biphenyl-4-yl]methyl}-3-(4-isopropoxyphenyl)-2-methyl-6-propylpyrimidin-4(3H)-one] | 1.5 | 25.3
2 | CCCCc1nc(C)n(CC(=O)C(C)(C)C)c(=O)c1Cc1ccc(-c2ccccc2-c2noc(=O)[nH]2)cc1 [Example 37, 6-butyl-3-(3,3-dimethyl-2-oxobutyl)-2-methyl-5-{[2′-(5-oxo-4,5-dihydro-1,2,4-oxadiazol-3-yl)biphenyl-4-yl]methyl}pyrimidin-4(3H)-one] | 1.3 | 29.8
3 | CCCCc1nc(C)n(-c2ccc(OC(C)(C)COC)cc2)c(=O)c1Cc1ccc(-c2ccccc2-c2noc(=O)[nH]2)cc1 [Example 427, 6-butyl-3-[4-(2-methoxy-1,1-dimethylethoxy)phenyl]-2-methyl-5-{[2′-(5-oxo-4,5-dihydro-1,2,4-oxadiazol-3-yl)biphenyl-4-yl]methyl}pyrimidin-4(3H)-one] | 1.4 | 17.7
4 | CCCc1nc(CC)c(Oc2ccc3c(c2)OCO3)c(=O)n1Cc1ccc(-c2ccccc2-c2noc(O)n2)cc1 [Example 485, 5-(1,3-benzodioxol-5-yloxy)-6-ethyl-3-{[2′-(5-oxo-4,5-dihydro-1,2,4-oxadiazol-3-yl)biphenyl-4-yl]methyl}-2-propylpyrimidin-4(3H)-one] | 2 | 23.5
5 | CCCc1nc(C)n(-c2ccc(OC(C)CF)cc2)c(=O)c1Cc1ccc(-c2ccccc2-c2noc(=O)[nH]2)cc1 (stereo not drawn) [Example 277, 3-[4-(2-fluoro-1-methylethoxy)phenyl]-2-methyl-5-{[2′-(5-oxo-4,5-dihydro-1,2,4-oxadiazol-3-yl)biphenyl-4-yl]methyl}-6-propylpyrimidin-4(3H)-one] | 1.8 | 33.5
6 | CCCc1nc(CC)c(-c2ccc(OC)cc2)c(=O)n1Cc1ccc(-c2ccccc2-c2noc(O)n2)cc1 [Example 456, 6-ethyl-5-(4-methoxyphenyl)-3-{[2′-(5-oxo-4,5-dihydro-1,2,4-oxadiazol-3-yl)biphenyl-4-yl]methyl}-2-propylpyrimidin-4(3H)-one] | 1.8 | 30
7 | CCCOc1ccc(-c2c(CC)nc(CCC)n(Cc3ccc(-c4ccccc4-c4noc(=O)[nH]4)cc3)c2=O)cc1 [Example 459, 6-ethyl-3-{[2′-(5-oxo-4,5-dihydro-1,2,4-oxadiazol-3-yl)biphenyl-4-yl]methyl}-5-(4-propoxyphenyl)-2-propylpyrimidin-4(3H)-one] | 2.1 | 40
8 | CCCc1nc(CC)n(-c2ccc(OC(C)(C)C)cc2)c(=O)c1Cc1ccc(-c2ccccc2-c2noc(=O)[nH]2)cc1 [Example 364, 3-(4-tert-butoxyphenyl)-2-ethyl-5-{[2′-(5-oxo-4,5-dihydro-1,2,4-oxadiazol-3-yl)biphenyl-4-yl]methyl}-6-propylpyrimidin-4(3H)-one] | 1.9 | 32.6
9 | CCCc1nc(C)n(-c2ccc(OC3CCCC(=O)CC3)cc2)c(=O)c1Cc1ccc(-c2ccccc2-c2noc(=O)[nH]2)cc1 (stereo not drawn) [Example 437, 2-methyl-3-{4-[(4-oxocycloheptyl)oxy]phenyl}-5-{[2′-(5-oxo-4,5-dihydro-1,2,4-oxadiazol-3-yl)biphenyl-4-yl]methyl}-6-propylpyrimidin-4(3H)-one] | 1 | 18.1
10 | CCCc1nc(C)n(-c2cc(F)c3c(c2)CC(C)(C)O3)c(=O)c1Cc1ccc(-c2ccccc2-c2noc(=O)[nH]2)cc1 [Example 275, 3-(7-fluoro-2,2-dimethyl-2,3-dihydro-1-benzofuran-5-yl)-2-methyl-5-{[2′-(5-oxo-4,5-dihydro-1,2,4-oxadiazol-3-yl)biphenyl-4-yl]methyl}-6-propylpyrimidin-4(3H)-one] | 1.8 | 17
11 | CCCCc1nc(C)n(-c2ccc3c(c2)CC(C)(C)O3)c(=O)c1Cc1ccc(-c2ccccc2-c2noc(O)n2)cc1 [Example 234, 6-butyl-3-(2,2-dimethyl-2,3-dihydro-1-benzofuran-5-yl)-2-methyl-5-{[2′-(5-oxo-4,5-dihydro-1,2,4-oxadiazol-3-yl)biphenyl-4-yl]methyl}pyrimidin-4(3H)-one] | 1.2 | 33.9
12 | CCCCc1nc(C)n(CC23CC4CC(CC(C4)C2)C3)c(=O)c1Cc1ccc(-c2ccccc2-c2noc(=O)[nH]2)cc1 [Example 42, 3-(1-adamantylmethyl)-6-butyl-2-methyl-5-{[2′-(5-oxo-4,5-dihydro-1,2,4-oxadiazol-3-yl)biphenyl-4-yl]methyl}pyrimidin-4(3H)-one] | 1.5 | 61.2
13 | CCCc1nc(CC)n(-c2ccc(OC3(CO)CCC3)cc2)c(=O)c1Cc1ccc(-c2ccccc2-c2noc(=O)[nH]2)cc1 [Example 419, 2-ethyl-3-(4-{[1-(hydroxymethyl)cyclobutyl]oxy}phenyl)-5-{[2′-(5-oxo-4,5-dihydro-1,2,4-oxadiazol-3-yl)biphenyl-4-yl]methyl}-6-propylpyrimidin-4(3H)-one] | 1.3 | 27.2
14 | CCCCc1nc(C)n(Cc2noc(-c3ccccc3)n2)c(=O)c1Cc1ccc(-c2ccccc2-c2noc(=O)[nH]2)cc1 [Example 152, 6-butyl-2-methyl-5-{[2′-(5-oxo-4,5-dihydro-1,2,4-oxadiazol-3-yl)biphenyl-4-yl]methyl}-3-[(5-phenyl-1,2,4-oxadiazol-3-yl)methyl]pyrimidin-4(3H)-one] | 2.1 | 64.8
15 | CCCc1nc(OC)n(-c2ccc(OC(C)C)cc2)c(=O)c1Cc1ccc(-c2ccccc2-c2noc(O)n2)cc1 [Example 368, 3-(4-isopropoxyphenyl)-2-methoxy-5-{[2′-(5-oxo-4,5-dihydro-1,2,4-oxadiazol-3-yl)biphenyl-4-yl]methyl}-6-propylpyrimidin-4(3H)-one] | 2 | 50.2
16 | CCCc1nc(CC)c(-c2ccc(OC(C)C)nc2)c(=O)n1Cc1ccc(-c2ccccc2-c2noc(O)n2)cc1F [Example 467, 6-ethyl-3-{[3-fluoro-2′-(5-oxo-4,5-dihydro-1,2,4-oxadiazol-3-yl)biphenyl-4-yl]methyl}-5-(6-isopropoxypyridin-3-yl)-2-propylpyrimidin-4(3H)-one] | 2.5 | 35.7
17 | CCCc1nc(C)c(-c2ccc(OC(C)C)cc2)c(=O)n1Cc1ccc(-c2ccccc2-c2noc(O)n2)cc1 [Example 28, 5-(4-isopropoxyphenyl)-6-methyl-3-{[2′-(5-oxo-4,5-dihydro-1,2,4-oxadiazol-3-yl)biphenyl-4-yl]methyl}-2-propylpyrimidin-4(3H)-one] | 1.6 | 16.2
18 | CCCc1nc(C)n(-c2ccc(OC(C)(C)C(C)O)cc2)c(=O)c1Cc1ccc(-c2ccccc2-c2noc(=O)[nH]2)cc1 (stereo not drawn) [Example 439, 3-[4-(2-hydroxy-1,1-dimethylpropoxy)phenyl]-2-methyl-5-{[2′-(5-oxo-4,5-dihydro-1,2,4-oxadiazol-3-yl)biphenyl-4-yl]methyl}-6-propylpyrimidin-4(3H)-one] | 1.4 | 20.1
